Experimental data as given in patent US10882860B2, “Treatment of osteoarthritis” (Samumed, LLC, priority 2015, dated 2021).
≈ marks a conversion by molar mass, not a printed value. Like-named read-outs stand apart in the source and are kept apart here. Marks after values point to notes of the source that are not given here.

Experiments:
Format in all cases: physicochemical
[1] = Competitive slurry experiments between polymorph forms (thermodynamic stability); conditions: for most stable form in competitive slurry: 15 forms mixed (10 mg each), RT and 50° C., 3-5 days
Method: In order to find out the thermodynamic stability between the different forms, several competitive slurry experiments were carried out. Form 1, Form 2, Form 2*, Form 3, Form 4, Form 4*, Form 4**, Form 5, Form 7, Form 8, Form 9, Form 10, Form 11, Form 11*, and Form 13 (10 mg for each) was mixed and slurried in 2 mL of solvent at both RT and 50° C. The solids were slurried for 3-5 days and then analyzed by XRD.
In order to find out the thermodynamic stability between Form 13 and Form 9, several competitive slurry experiments were carried out. 15 mg of Form 1, Form 9 and Form 13 solid were mixed in 1 mL of toluene, IPAc, and n-butyl acetate, and slurried for 3 days at RT and 50° C.
The residual solid was analyzed by XRD.

[2] = Dynamic vapor sorption (DVS) and exposure to humidity/air of solid forms
Method: The hydrate lost its water below 30% RH.
The purity of the Form 13 sample was 98.8%; the KF of an undried Form 13 sample was 35.7%.
Solvates 1 and 2 solids were exposed to air overnight, and then analyzed by XRD. After the analysis, the solids were dried at 50° C. under vacuum, and then analyzed by XRD again.

[3] = Slurry experiments in various solvents (polymorph screen)
Method: Slurry experiments in various solvents were performed. Approximately 30-80 mg of the starting solid (a non-stoichiometric hydrate of Form 1 having between 1% and about 20% by weight water) was slurried in 39 different solvents (pure and binary solvents; the ratio of organic solvent/water (V/V) was 95%/5%) at RT and 50° C. for 5 days. Three solvates, […], and eleven non-solvated forms were identified. […] XRD of both wet and dry samples were scanned (FIG. 12A (dry sample)).
The slurry experiments identified 3 solvated forms from wet samples (Solvates 1, 2, and 3); 2 non-stoichiometric hydrates of Form 1 (Forms 12 and 13); and 11 non-solvated forms (Forms 1-11). In some instances, similar XRD scans with minor differences were obtained. These were considered to be part of the same class (e.g., the same form). For example, XRD scans of Form 2 and Form 2* were similar and were considered to belong to the same class. The solvated forms were obtained from wet sample analysis; after drying, the sample indicated a different XRD.

[4] = Solubility of the starting solid by the gravimetric method; conditions: for solubility: thermodynamic from solid
[5] = slurry in EtOH/water (5% water), 50° C.
[6] = slurry in n-Butyl acetate, 50° C.
[7] = slurry in n-Propanol/water (5% water), 50° C.
[8] = slurry in DMSO/water (5% water), 50° C.
[9] = slurry in DMSO/water (5% water), RT
[10] = slurry in DMF/water (5% water), 50° C.
[11] = slurry in DMF/water (5% water), RT

## CC(C)CC(=O)Nc1cncc(-c2ccc3[nH]nc(-c4nc5c(-c6cccc(F)c6)cncc5[nH]4)c3c2)c1 [Form 1, Form 9 and Form 13]
[1]; 50° C., IPAc
  Form after 3 days; wet/dry: Form 9/Form 9
[1]; 50° C., Toluene
  Form after 3 days; wet/dry: Form 9 + Form 13/Form 9 + Form 1
[1]; 50° C., n-Butyl acetate
  Form after 3 days; wet/dry: Form 9 + Form 13/Form 9 + Form 1
[1]; RT, IPAc
  Form after 3 days; wet/dry: Form 9 + Form 13/Form 9 + Form 1
[1]; RT, Toluene
  Form after 3 days; wet/dry: Form 13/Form 1
[1]; RT, n-Butyl acetate
  Form after 3 days; wet/dry: Form 9 + Form 13/Form 9 + Form 1

## CC(C)CC(=O)Nc1cncc(-c2ccc3[nH]nc(-c4nc5c(-c6cccc(F)c6)cncc5[nH]4)c3c2)c1 [Form 1]
[2]; exposed to air
  form change when exposed to air: converts to Form 13

## CC(C)CC(=O)Nc1cncc(-c2ccc3[nH]nc(-c4nc5c(-c6cccc(F)c6)cncc5[nH]4)c3c2)c1 [Form 4]
[1]; EA
  most stable form in competitive slurry: most stable

## CC(C)CC(=O)Nc1cncc(-c2ccc3[nH]nc(-c4nc5c(-c6cccc(F)c6)cncc5[nH]4)c3c2)c1 [Form 9]
[2]; XRD before/after DVS
  change of form before and after the DVS scan: did not change its form
[3]; [5]
  Dry (solid form by XRD after slurry): Form 9
  Wet (solid form by XRD after slurry): Form 9
[3]; slurry in IPAc, 50° C.
  Dry (solid form by XRD after slurry): Form 9
  Wet (solid form by XRD after slurry): Form 9
[3]; slurry in n-Butanol, 50° C.
  Dry (solid form by XRD after slurry): Form 9
  Wet (solid form by XRD after slurry): Form 9
[3]; slurry in n-Butanol, RT
  Dry (solid form by XRD after slurry): Form 9
  Wet (solid form by XRD after slurry): Form 9
[3]; [6]
  Dry (solid form by XRD after slurry): Form 9
  Wet (solid form by XRD after slurry): Form 9
[3]; [7]
  Dry (solid form by XRD after slurry): Form 9
  Wet (solid form by XRD after slurry): Form 9

## CC(C)CC(=O)Nc1cncc(-c2ccc3[nH]nc(-c4nc5c(-c6cccc(F)c6)cncc5[nH]4)c3c2)c1 [Form 10]
[3]; slurry in DMSO, 50° C.
  Dry (solid form by XRD after slurry): Form 10*
  Wet (solid form by XRD after slurry): amorphous
[3]; slurry in DMSO, RT
  Dry (solid form by XRD after slurry): Form 10
  Wet (solid form by XRD after slurry): amorphous
[3]; [8]
  Dry (solid form by XRD after slurry): Form 10
  Wet (solid form by XRD after slurry): amorphous
[3]; [9]
  Dry (solid form by XRD after slurry): Form 10
  Wet (solid form by XRD after slurry): amorphous

## CC(C)CC(=O)Nc1cncc(-c2ccc3[nH]nc(-c4nc5c(-c6cccc(F)c6)cncc5[nH]4)c3c2)c1 [Form 11]
[3]; slurry in DMF, 50° C.
  Dry (solid form by XRD after slurry): Form 11*
  Wet (solid form by XRD after slurry): Form 11
[3]; slurry in DMF, RT
  Dry (solid form by XRD after slurry): Form 11
  Wet (solid form by XRD after slurry): Form 11
[3]; [10]
  Dry (solid form by XRD after slurry): Form 11
  Wet (solid form by XRD after slurry): Form 11
[3]; [11]
  Dry (solid form by XRD after slurry): Form 11
  Wet (solid form by XRD after slurry): Form 11

## CC(C)CC(=O)Nc1cncc(-c2ccc3[nH]nc(-c4nc5c(-c6cccc(F)c6)cncc5[nH]4)c3c2)c1 [Form 13]
[1]; water
  most stable form in competitive slurry: most stable

## CC(C)CC(=O)Nc1cncc(-c2ccc3[nH]nc(-c4nc5c(-c6cccc(F)c6)cncc5[nH]4)c3c2)c1 [Solvate 1]
[2]
  form change after exposure to air overnight (XRD): converted to low crystallinity

## CC(C)CC(=O)Nc1cncc(-c2ccc3[nH]nc(-c4nc5c(-c6cccc(F)c6)cncc5[nH]4)c3c2)c1 [Solvate 2]
[2]
  form change after exposure to air overnight (XRD): changed a little

## CC(C)CC(=O)Nc1cncc(-c2ccc3[nH]nc(-c4nc5c(-c6cccc(F)c6)cncc5[nH]4)c3c2)c1 [starting solid]
[4]; RT and 50° C., all solvents tested except DMF and DMSO
  Solubility (gravimetric method): low solubility
[4]; organic solvent or mixture, Acetic acid, 50° C., read-out: Solubility at 50° C.
  solubility: 3000 µg/mL (≈ 5930 µM)
[4]; organic solvent or mixture, Acetone, 50° C., read-out: Solubility at 50° C.
  solubility: 1000 µg/mL (≈ 1980 µM)
[4]; organic solvent or mixture, Acetone, RT, read-out: Solubility at RT
  solubility: 1000 µg/mL (≈ 1980 µM)
[4]; organic solvent or mixture, DCM, 50° C., read-out: Solubility at 50° C.
  solubility: 2000 µg/mL (≈ 3960 µM)
[4]; organic solvent or mixture, DCM, RT, read-out: Solubility at RT
  solubility: 2000 µg/mL (≈ 3960 µM)
[4]; organic solvent or mixture, DMF, 50° C., read-out: Solubility at 50° C.
  solubility: 16000 µg/mL (≈ 31600 µM)
[4]; organic solvent or mixture, DMF, RT, read-out: Solubility at RT
  solubility: 12000 µg/mL (≈ 23700 µM)
[4]; organic solvent or mixture, EA, 50° C., read-out: Solubility at 50° C.
  solubility: 1000 µg/mL (≈ 1980 µM)
[4]; organic solvent or mixture, EA, RT, read-out: Solubility at RT
  solubility: 1000 µg/mL (≈ 1980 µM)
[4]; organic solvent or mixture, EtOH, 50° C., read-out: Solubility at 50° C.
  solubility: 2000 µg/mL (≈ 3960 µM)
[4]; organic solvent or mixture, EtOH, RT, read-out: Solubility at RT
  solubility: 2000 µg/mL (≈ 3960 µM)
[4]; organic solvent or mixture, IPA, 50° C., read-out: Solubility at 50° C.
  solubility: 5000 µg/mL (≈ 9890 µM)
[4]; organic solvent or mixture, IPA, RT, read-out: Solubility at RT
  solubility: 2000 µg/mL (≈ 3960 µM)
[4]; organic solvent or mixture, MEK, 50° C., read-out: Solubility at 50° C.
  solubility: 1000 µg/mL (≈ 1980 µM)
[4]; organic solvent or mixture, MEK, RT, read-out: Solubility at RT
  solubility: 1000 µg/mL (≈ 1980 µM)
[4]; organic solvent or mixture, MIBK, 50° C., read-out: Solubility at 50° C.
  solubility: 1000 µg/mL (≈ 1980 µM)
[4]; organic solvent or mixture, MIBK, RT, read-out: Solubility at RT
  solubility: 1000 µg/mL (≈ 1980 µM)
[4]; organic solvent or mixture, MeOH, 50° C., read-out: Solubility at 50° C.
  solubility: 1000 µg/mL (≈ 1980 µM)
[4]; organic solvent or mixture, MeOH, RT, read-out: Solubility at RT
  solubility: 1000 µg/mL (≈ 1980 µM)
[4]; organic solvent or mixture, Toluene, 50° C., read-out: Solubility at 50° C.
  solubility: 1000 µg/mL (≈ 1980 µM)
[4]; organic solvent or mixture, Toluene, RT, read-out: Solubility at RT
  solubility: 1000 µg/mL (≈ 1980 µM)
[4]; organic solvent or mixture, n-Butanol, 50° C., read-out: Solubility at 50° C.
  solubility: 2000 µg/mL (≈ 3960 µM)
[4]; organic solvent or mixture, n-Butanol, RT, read-out: Solubility at RT
  solubility: 1000 µg/mL (≈ 1980 µM)
[4]; organic solvent or mixture, n-Propanol, 50° C., read-out: Solubility at 50° C.
  solubility: 2000 µg/mL (≈ 3960 µM)
[4]; organic solvent or mixture, n-Propanol, RT, read-out: Solubility at RT
  solubility: 1000 µg/mL (≈ 1980 µM)
[4]; water, 50° C., read-out: Solubility at 50° C.
  solubility: 1000 µg/mL (≈ 1980 µM)
[4]; water, RT, read-out: Solubility at RT
  solubility: 1000 µg/mL (≈ 1980 µM)
